Assay [1] has as its system Trypanosoma brucei rhodesiense. The assay is described as follows: Antitrypanosomal activity against Trypanosoma brucei rhodesiense STIB 900 after 72 hrs by microplate alamar blue assay. It is filed as functional, organism-based. Conditions: STIB 900, 72 h.
The test system of a further assay is L6. The assay is described as follows: Cytotoxicity against rat L6 cells after 72 hrs by microplate alamar blue assay. It is filed as cell-based. The conditions noted are these: L6, 72 h. (Alamar Blue is a resazurin reagent that responds to reducing activity.)
In another assay the test system is Plasmodium falciparum. Put plainly: Antiplasmodial activity against chloroquine and pyrimethamine-resistant Plasmodium falciparum K1 after 48 hrs. It is filed as functional, organism-based. The conditions noted are these: K1, 48 h.
The nature of assay [2]: Selectivity index, Ratio of IC50 for L6 cells to IC50 for Trypanosoma brucei rhodesiense STIB 9. It is filed as functional.
Assay [3] is described as follows: Selectivity index, Ratio of IC50 for L6 cells to IC50 for Plasmodium falciparum K1. It is filed as functional.

This is an account of results in ChEMBL document CHEMBL1150424, “Novel azabicyclo[3.2.2]nonane derivatives and their activities against Plasmodium falciparum K1 and Trypanosoma brucei rhodesiense” (Bioorg Med Chem, 2008).

`NC(=O)CN1CCC2(N3CCCCC3)CC(c3ccc(Cl)cc3)C1C(c1ccc(Cl)cc1)C2` (racemic): the IC50 in assay [1] is 990 nM; in the assay with L6, 23800 nM; in the assay on Plasmodium falciparum, 1570 nM. Also, the “Ratio IC50” value worked out at 24 in assay [2] and 15.13 in assay [3].

For `NCCN1CCC2(N3CCCC3)CC(c3ccc(Cl)cc3)C1C(c1ccc(Cl)cc1)C2` (racemic), the concentration for half-maximal inhibition (IC50) in assay [1] stood at 210 nM; in the assay with L6, 4650 nM; with Plasmodium falciparum it was 320 nM. Further, the entries for the “Ratio IC50” value in assay [2] and in assay [3] were 22.14 and 14.53, respectively.

For the compound `NC(=O)CN1CCC2(N3CCCC3)CC(c3ccc(Cl)cc3)C1C(c1ccc(Cl)cc1)C2` (racemic), the concentration for half-maximal inhibition (IC50) in assay [1] is 760 nM; in the assay on L6 it was 23900 nM; in the assay with Plasmodium falciparum, 830 nM. The “Ratio IC50” value in assay [2] was 31.45; in assay [3], 28.8.

Consider `CN(C)C12CCN(CCN)C(C(c3ccc(Cl)cc3)C1)C(c1ccc(Cl)cc1)C2` (racemic), for which the values for the IC50 (in assay [1]; in the assay with L6; in the assay on Plasmodium falciparum) were 500 nM, 10200 nM and 900 nM, respectively. Also, the results for the “Ratio IC50” value in assay [2] and in assay [3] were 20.44 and 11.36, respectively.

As for `COc1ccc(C2CC3(N(C)C)CCNC2C(c2ccc(OC)cc2)C3)cc1` (racemic), the results for the concentration for half-maximal inhibition (IC50) (in assay [1]; in the assay on L6; in the assay on Plasmodium falciparum) were 670 nM, 117000 nM and 2690 nM, respectively. The “Ratio IC50” value in assay [2] is reported as 174.7; in assay [3], 43.52.

Regarding `CN(C)C12CCNC(C(c3ccc(F)cc3)C1)C(c1ccc(F)cc1)C2` (racemic), the half-maximal inhibitory concentration (IC50) in assay [1] came out at 440 nM; with L6 it was 186000 nM; with Plasmodium falciparum, 890 nM. Also, the results for the “Ratio IC50” value in assay [2] and in assay [3] were 422.7 and 209, respectively.

On to `Clc1ccc(C2CC3(N4CCCCC4)CCNC2C(c2ccc(Cl)c(Cl)c2)C3)cc1Cl` (racemic), for which the IC50 in assay [1] is 160 nM; in the assay on L6 it was 8870 nM; in the assay on Plasmodium falciparum, 540 nM. Moreover, the “Ratio IC50” value in assay [2] turned out to be 55.44; in assay [3], 16.43.

Consider `CCOC(=O)CN1CCC2(N(C)C)CC(c3ccc(Cl)cc3)C1C(c1ccc(Cl)cc1)C2` (racemic), for which the 50% inhibitory concentration (IC50) in assay [1] is 1780 nM; with L6, 5120 nM; in the assay with Plasmodium falciparum, 700 nM. Further, the “Ratio IC50” value in assay [2] was 2.88; in assay [3], 7.31.

`CN(C)C12CCNC(C(c3cccc4ccccc34)C1)C(c1cccc3ccccc13)C2` (racemic): the results for the IC50 (in assay [1]; in the assay with L6; with Plasmodium falciparum) were 110 nM, 6470 nM and 480 nM, respectively. Also, the results for the “Ratio IC50” value in assay [2] and in assay [3] were 58.82 and 13.48, respectively.

Turning to `CCOC(=O)CN1CCC2(N3CCCCC3)CC(c3ccc(Cl)cc3)C1C(c1ccc(Cl)cc1)C2` (racemic), the values for the IC50 (in assay [1]; in the assay on L6; in the assay with Plasmodium falciparum) were 2190 nM, 13100 nM and 1010 nM, respectively. The “Ratio IC50” value in assay [2] is on record as 5.97; in assay [3], 12.94.

Turning to `CN(C)C12CCN(CC(N)=O)C(C(c3ccc(Cl)cc3)C1)C(c1ccc(Cl)cc1)C2` (racemic), the IC50 came out at 910 nM in assay [1], 25500 nM with L6 and 1110 nM in the assay with Plasmodium falciparum. Besides, the entries for the “Ratio IC50” value in assay [2] and in assay [3] were 28.07 and 23.01, respectively.

As for `CN(C)C12CCNC(C(c3ccc(Cl)c(Cl)c3)C1)C(c1ccc(Cl)c(Cl)c1)C2` (racemic), the 50% inhibitory concentration (IC50) is 90 nM in assay [1], 6440 nM in the assay with L6 and 400 nM in the assay on Plasmodium falciparum. For the same compound, the “Ratio IC50” value in assay [2] was found to be 71.56; in assay [3] it was 16.1.

With `CN(C)C12CCNC([C@H](c3ccccc3)C1)[C@H](c1ccccc1)C2`, the half-maximal inhibitory concentration (IC50) in assay [1] turned out to be 600 nM.

For the compound `Clc1ccc(C2CC3(N4CCCC4)CCNC2C(c2ccc(Cl)c(Cl)c2)C3)cc1Cl` (racemic), the IC50 in assay [1] came to 150 nM; in the assay with L6, 6870 nM; in the assay with Plasmodium falciparum, 280 nM. The entries for the “Ratio IC50” value in assay [2] and in assay [3] were 45.8 and 24.54, respectively.

On to `CN(C)C12CCNC(C(c3ccc(C(F)(F)F)cc3)C1)C(c1ccc(C(F)(F)F)cc1)C2` (racemic), for which the results for the IC50 (in assay [1]; in the assay with L6; with Plasmodium falciparum) were 80 nM, 9440 nM and 850 nM, respectively. The “Ratio IC50” value in assay [2] was 118; in assay [3], 11.11.

Turning to `NCCN1CCC2(N3CCCCC3)CC(c3ccc(Cl)cc3)C1C(c1ccc(Cl)cc1)C2` (racemic), the results for the IC50 (in assay [1]; in the assay on L6; with Plasmodium falciparum) were 76 nM, 3370 nM and 150 nM, respectively. Besides, the “Ratio IC50” value in assay [2] stood at 44.34; in assay [3], 22.47.

As to `CN(C)C12CCNC(C(c3ccc(Br)cc3)C1)C(c1ccc(Br)cc1)C2` (racemic), the values for the concentration for half-maximal inhibition (IC50) (in assay [1]; in the assay on L6; with Plasmodium falciparum) were 87 nM, 9030 nM and 340 nM, respectively. The “Ratio IC50” value amounted to 103.9 in assay [2] and 26.56 in assay [3].

Consider `Cc1ccc(C2CC3(N(C)C)CCNC2C(c2ccc(C)cc2)C3)cc1` (racemic), for which the IC50 in assay [1] came to 120 nM; in the assay with L6, 40500 nM; with Plasmodium falciparum, 450 nM. Besides, the results for the “Ratio IC50” value in assay [2] and in assay [3] were 337.2 and 89.91, respectively.

On to `C[C@@H]1CC[C@H]2[C@@H](C)C(=O)O[C@@H]3O[C@@]4(C)CC[C@@H]1[C@]32OO4` [ARTEMISININ], for which it took 6.4 nM to reach half-maximal inhibition in the assay with Plasmodium falciparum (IC50).

With `OCCN1CCC2(N3CCCCC3)CC(c3ccc(Cl)cc3)C1C(c1ccc(Cl)cc1)C2` (racemic), the half-inhibitory concentration (IC50) in assay [1] worked out at 670 nM; in the assay with L6 it was 9690 nM; in the assay on Plasmodium falciparum, 700 nM. The “Ratio IC50” value in assay [2] came out at 14.46; in assay [3], 13.84.

Usually IC50 stands for the concentration that inhibits the measured activity by half. A lower IC50 goes with inhibition by little substance.
